Test results as given in the Kinase Knowledgebase extract (Sharma et al. 2016).

Legend:
EGFR (human) = EGFR (human) (UniProt P00533); conditions: hn5
EGFR = EGFR (UniProt P00533)
Chain of EGFR (P00533 whole entry, looked up): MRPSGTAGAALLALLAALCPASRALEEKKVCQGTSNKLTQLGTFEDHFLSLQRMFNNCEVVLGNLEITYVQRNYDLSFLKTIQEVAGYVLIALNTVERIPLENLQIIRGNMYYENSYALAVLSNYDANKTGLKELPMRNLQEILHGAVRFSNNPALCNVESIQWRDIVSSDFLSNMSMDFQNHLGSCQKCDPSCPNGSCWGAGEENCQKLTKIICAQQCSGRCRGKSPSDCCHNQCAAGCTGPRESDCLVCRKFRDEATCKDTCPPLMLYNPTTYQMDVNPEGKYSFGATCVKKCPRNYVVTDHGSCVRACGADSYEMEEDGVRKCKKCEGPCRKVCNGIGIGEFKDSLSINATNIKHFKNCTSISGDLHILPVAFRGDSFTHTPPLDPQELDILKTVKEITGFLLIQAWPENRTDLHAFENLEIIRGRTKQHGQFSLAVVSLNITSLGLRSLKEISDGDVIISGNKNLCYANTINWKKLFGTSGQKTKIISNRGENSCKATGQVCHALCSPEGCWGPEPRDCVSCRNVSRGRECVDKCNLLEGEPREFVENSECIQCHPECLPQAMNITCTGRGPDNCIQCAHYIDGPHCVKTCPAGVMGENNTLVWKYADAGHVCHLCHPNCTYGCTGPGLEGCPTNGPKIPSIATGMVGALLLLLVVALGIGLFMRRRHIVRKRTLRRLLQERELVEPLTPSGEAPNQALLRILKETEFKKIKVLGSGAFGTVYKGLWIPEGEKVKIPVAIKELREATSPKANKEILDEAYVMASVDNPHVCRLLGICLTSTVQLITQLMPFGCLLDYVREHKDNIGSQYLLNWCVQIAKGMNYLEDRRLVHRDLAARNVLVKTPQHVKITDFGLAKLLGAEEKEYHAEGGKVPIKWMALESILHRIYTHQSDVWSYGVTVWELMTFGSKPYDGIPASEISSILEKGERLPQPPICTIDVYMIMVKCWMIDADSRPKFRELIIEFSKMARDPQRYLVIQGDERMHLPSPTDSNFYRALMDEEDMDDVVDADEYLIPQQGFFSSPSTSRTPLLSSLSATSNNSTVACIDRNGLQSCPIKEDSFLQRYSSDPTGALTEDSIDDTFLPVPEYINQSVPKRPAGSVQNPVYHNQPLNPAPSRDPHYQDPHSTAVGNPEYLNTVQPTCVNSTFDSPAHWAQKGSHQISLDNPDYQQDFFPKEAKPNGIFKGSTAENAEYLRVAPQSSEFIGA

Chain of EGFR (human) (P00533 whole entry, looked up): as above

Row | Structure (SMILES) | IC50 (EGFR (human)) [nM] | IC50 (EGFR) [nM]
1 | NC(=O)CNCc1ccc2ncnc(Nc3ccc4c(cnn4Cc4ccccc4)c3)c2c1 | – | < 100
2 | CS(=O)(=O)CCNCCCCOc1ccc2ncnc(Nc3ccc(OCc4cccc(F)c4)c(Cl)c3)c2c1 | 5000 to 25000 | –
3 | CN(CC(N)=O)Cc1ccc2ncnc(Nc3ccc4c(cnn4Cc4ccccc4)c3)c2c1 | – | < 100
4 | O=C(O)CNCc1ccc2ncnc(Nc3ccc4c(cnn4Cc4ccccc4)c3)c2c1 | – | < 100
5 | CC(C)(C)OC(=O)[C@H]1CCCN1Cc1ccc2ncnc(Nc3ccc4c(cnn4Cc4ccccc4)c3)c2c1 | – | 100 to 1000
6 | CS(=O)(=O)CCNCc1ccc2ncnc(Nc3ccc4c(cnn4Cc4ccccc4)c3)c2c1 | – | < 100
7 | NC(=O)[C@@H]1CCCN1Cc1ccc2ncnc(Nc3ccc4c(cnn4Cc4ccccc4)c3)c2c1 | – | < 100

Further lines, results first:

Row | IC50 (EGFR (human)) [nM] | IC50 (EGFR) [nM] | Structure (SMILES)
8 | < 5000 | – | CS(=O)(=O)CCNCCCCOc1ccc2ncnc(Nc3ccc(S(=O)(=O)c4ccccc4)cc3)c2c1
9 | < 5000 | – | CS(=O)(=O)CCNCCCCOc1ccc2ncnc(Nc3ccc(OCc4ccccc4)cc3)c2c1
10 | < 5000 | – | CN(CCCOc1ccc2ncnc(Nc3ccc(OCc4ccccc4)cc3)c2c1)CCS(C)(=O)=O
11 | 5000 to 25000 | – | CS(=O)(=O)CCNCCCOc1ccc2ncnc(Nc3ccc(OCc4ccccc4)cc3)c2c1
